These are literature values, as cited in patent US20070092561A1, “Water-Soluble Aspirin Composition” (priority 2005, published 2007).

Like-named read-outs stand apart in the source and are kept apart here.

Regarding `CC(=O)Oc1ccccc1C(=O)O` [aspirin], the “occurrence of side-effects (gastric irritation, inflammation, heartburn, nausea, pain)” value (aspirin users) is given as 2-10% and the “occurrence of side-effects (gastric irritation, inflammation, heartburn, nausea, pain)” value (in chronic arthritis) is “about 25%”.
